{
  "source": "patent US20160061841A1",
  "about": "“NRF2-BASED CANCER TREATMENT AND DETECTION METHODS AND USES” (CanBas Co., Ltd., priority 2014, published 2016)",
  "key": {"NCI-H520": {"tested_on": "NCI-H520", "assay": "CDDP-enhancing activity of CBP501, cell cycle distribution by flow-cytometry", "type": "cell-based, Human", "conditions": "1 h co-exposure with CDDP", "procedure": "(§1) Cell culture and reagents. Human NSCLC cell lines were cultured in a variety of media, each supplemented with 10% fetal bovine serum (Invitrogen, San Diego, CA) at 37° C. with 5% CO2/air. The media used was RPMI1640 (Sigma-Aldrich, St. Louis, Mo.) for NCI-H1755, NCI-H2030, NCI-H1437, NCI-H2122, NCI-H2172, NCI-H2228, NCI-H1563, NCI-H1944, NCI-H1993, NCI-H1734, NCI-H1568, NCI-H2444, NCI-H2291, NCI-H2347, NCI-H1838, NCI-H1299, HCC827, NCI-H1975, NCI-H1155, NCI-H522 and NCI-H1703; RPMI1640 supplemented with 2mM L-glutamine (Invitrogen) for NCI-H727; RPMI1640 supplemented with 4.5 g/L D-glucose (Sigma-Aldrich), 10 mM HEPES (Sigma-Aldrich) and 1 mM sodium pyruvate (Sigma-Aldrich) for NCI-H358, NCI-H520, NCI-H23, NCI-H647 and NCI-H838; Ham's F12K (Sigma-Aldrich) for A549. CDDP was purchased from Sigma-Aldrich. Sulforaphane (SFN) was purchased from Sigma-Aldrich. All NSCLC cell lines were purchased from ATCC and STR analysis had been performed by ATCC to authenticate the identity of each cell line. All cell lines were used within three months after thawing.\n(§2) Cell cycle analysis. Cells were plated in 24-well plates and incubated for 24 hours. The cells were treated with or without CDDP plus or minus CBP501 at the indicated concentration for the indicated times. The cells were harvested and stained with Krishan's solution (0.1% sodium citrate, 50 μg/ml propidium iodide, 20 μg/ml RNase A, 0.5% NP-40). Stained cells were analyzed by FACSCalibur (Becton Dickinson, Franklin Lakes, N.J.) using CELLQuest software (Becton Dickinson).\n(§3) Here, the change in the cell cycle distribution, as indicated by flow-cytometry, was used to estimate the sensitivity of NSCLC cell lines to CBP501-enhanced cytotoxicity to CDDP. Such changes were monitored in cells treated with CDDP in the presence or absence of CBP501. The utility of this analysis for assessing the effectiveness of anti-cancer therapy is based on the absence of functioning G1/S checkpoint regulation in the cell cycle of many types of cancer cells (14). Lack of a functional G1/S checkpoint leads to an accumulation of cancer cells in G2/M phase upon their exposure to DNA-damaging anticancer agents (14, 15).\n(§4) To assess the CDDP-enhancing activity of CBP501, one can examine either of two dose-response curves in which the X-axis indicates the dose of CDDP and Y-axis indicates either the number of cells in subG1 or in G2/M. The transition and peak in either dose-response curve will shift to the left in the presence of CBP501 for CBP501-sensitive cells, indicating the enhanced ability of CDDP to change the cell cycle distribution. […] Using this criterion based on CBP501's ability to shift the CDDP-induced subG1 or G2/M dose-response curve, twelve NSCLC cell lines were classified as being either, CBP501-sensitive or CBP501-insensitive. Cell lines that shifted the curve two fold or more were classified as CBP501 sensitive cells and those that shifted the curve less than two fold were classified as CBP501 insensitive (Table 1). Classification of CBP501 sensitivity in NSCLC cell lines.\n(§5) Although the expression of Nrf2 or its several downstream transcription targets may possibly predict resistance to CBP501, the general reliability of these predictive markers for CBP501-sensitivity remained to be established. The combination effect of CBP501 and CDDP in sixteen additional NSCLC cell lines, classifying each as CBP501 sensitive or insensitive by the prior criteria was analyzed (Table 2). Classification of CBP501 sensitivity in additional NSCLC cell lines."}, "NCI-H358": {"tested_on": "NCI-H358", "assay": "CDDP-enhancing activity of CBP501, cell cycle distribution by flow-cytometry", "type": "cell-based, Human", "conditions": "1 h co-exposure with CDDP, shift of subG1 or G2/M dose-response curve", "procedure": "as §1, §2, §3, §4, §5"}, "NCI-H1975": {"tested_on": "NCI-H1975", "assay": "CDDP-enhancing activity of CBP501, cell cycle distribution by flow-cytometry", "type": "cell-based, Human", "conditions": "1 h co-exposure with CDDP", "procedure": "as §1, §2, §3, §4, §5"}, "NCI-H23": {"tested_on": "NCI-H23", "assay": "CDDP-enhancing activity of CBP501, cell cycle distribution by flow-cytometry", "type": "cell-based, Human", "conditions": "1 h co-exposure with CDDP, shift of subG1 or G2/M dose-response curve", "procedure": "as §1, §2, §3, §4, §5"}, "NCI-H522": {"tested_on": "NCI-H522", "assay": "CDDP-enhancing activity of CBP501, cell cycle distribution by flow-cytometry", "type": "cell-based, Human", "conditions": "1 h co-exposure with CDDP", "procedure": "as §1, §2, §3, §4, §5"}, "HCC827": {"tested_on": "HCC827", "assay": "CDDP-enhancing activity of CBP501, cell cycle distribution by flow-cytometry", "type": "cell-based, Human", "conditions": "1 h co-exposure with CDDP", "procedure": "as §1, §2, §3, §4, §5"}, "NCI-H647": {"tested_on": "NCI-H647", "assay": "CDDP-enhancing activity of CBP501, cell cycle distribution by flow-cytometry", "type": "cell-based, Human", "conditions": "1 h co-exposure with CDDP, shift of subG1 or G2/M dose-response curve", "procedure": "as §1, §2, §3, §4, §5"}, "A549": {"tested_on": "A549", "assay": "CDDP-enhancing activity of CBP501, cell cycle distribution by flow-cytometry", "type": "cell-based, Human", "conditions": "1 h co-exposure with CDDP, shift of subG1 or G2/M dose-response curve", "procedure": "as §1, §2, §3, §4, §5"}, "NCI-H727": {"tested_on": "NCI-H727", "assay": "CDDP-enhancing activity of CBP501, cell cycle distribution by flow-cytometry", "type": "cell-based, Human", "conditions": "1 h co-exposure with CDDP", "procedure": "as §1, §2, §3, §4, §5"}, "cancer cells [1]": {"tested_on": "cancer cells", "conditions": "shorter exposure and lower doses of CBP501 than required for G2 checkpoint abrogation; cited from earlier work"}, "cancer cells [2]": {"tested_on": "cancer cells", "conditions": "cited from earlier work"}, "calmodulin": {"target": "calmodulin (Homo sapiens, UniProt P0DP23)", "conditions": "cited from earlier work"}, "[3]": {"tested_on": "multiple kinases that phosphorylate CDC25C at Ser216", "conditions": "cited from earlier work"}, "[4]": {"tested_on": "platinum-resistant ovarian carcinoma and MPM", "conditions": "cited from earlier work"}, "[5]": {"tested_on": "H1437 Control (Ctrl)-shRNA and Nrf2-shRNA sub-lines", "assay": "Cell cycle distribution after CDDP with or without CBP501 in H1437 Ctrl-shRNA and Nrf2-shRNA sub-lines", "type": "cell-based, Human", "conditions": "one hour treatment with CDDP with or without CBP501", "procedure": "Cell cycle distribution changes are detected by Flow-cytometry (n=4). The graphs at the left are from the sub-line established by introducing Control (Ctrl)-shRNA into the H1437. The graphs at the right are from the sub-line established by indtroducing Nrf2-shRNA into H1437. Upper graphs indicate the subGl population. Lower graphs indicate the G2-M population. An asterisk indicates statistical significance (TTEST; p<0.001). N.S.=not significant (p>0.01).\nas §2\nLentivirus infection. […] Lentivirus infection was performed according to manufacturer's instructions.\nThe effect of Nrf2 knock-down in the CBP501 insensitive cell line H1437 was investigated."}, "[6]": {"conditions": "shift of subG1 or G2/M dose-response curve"}},
  "note": "Entries after “also recorded” stand apart in the source; their conditions may differ. Where no end group is shown, it is not given here. [ ]: non-standard residue; d: D form. dPhe(F5) = N[C@H](Cc1c(F)c(F)c(F)c(F)c1F)C(=O)O; dBpa = N[C@H](Cc1ccc(C(=O)c2ccccc2)cc1)C(=O)O; dCha = N[C@H](CC1CCCCC1)C(=O)O",
  "data": [
    {"substance": "(d-Bpa)(d-Ser)(d-Trp)(d-Ser)(d-Phe-2,3,4,5,6-F)(d-Cha)(d-Arg)(d-Arg)(d-Arg)(d-Gln)(d-Arg)(d-Arg) ([dBpa][dS][dW][dS][dPhe(F5)][dCha][dR][dR][dR][dQ][dR][dR]) [CBP501, anti-cancer drug candidate; calmodulin modulation and G2 checkpoint abrogation]", "values": [
      {"measurement": "Definition of CBP501 sensitivity", "setting": "NCI-H520", "result": "Sensitive (Cell lines that shifted the curve two fold or more were classified as CBP501 sensitive cells)"},
      {"measurement": "Folds increase of CDDP effect by CBP501", "setting": "NCI-H520; [6]", "result": 2, "unit": "fold"},
      {"measurement": "Folds increase of CDDP effect by CBP501", "setting": "NCI-H358", "result": 1, "unit": "fold"},
      {"measurement": "Definition of CBP501 sensitivity", "setting": "NCI-H1975", "result": "Sensitive (Cell lines that shifted the curve two fold or more were classified as CBP501 sensitive cells)"},
      {"measurement": "Folds increase of CDDP effect by CBP501", "setting": "NCI-H1975; [6]", "result": 2, "unit": "fold"},
      {"measurement": "Folds increase of CDDP effect by CBP501", "setting": "NCI-H23", "result": 4, "unit": "fold"},
      {"measurement": "Definition of CBP501 sensitivity", "setting": "NCI-H522", "result": "Sensitive (Cell lines that shifted the curve two fold or more were classified as CBP501 sensitive cells)"},
      {"measurement": "Folds increase of CDDP effect by CBP501", "setting": "NCI-H522; [6]", "result": 2, "unit": "fold"},
      {"measurement": "Definition of CBP501 sensitivity", "setting": "HCC827", "result": "Sensitive (Cell lines that shifted the curve two fold or more were classified as CBP501 sensitive cells)"},
      {"measurement": "Folds increase of CDDP effect by CBP501", "setting": "HCC827; [6]", "result": 4, "unit": "fold"},
      {"measurement": "Folds increase of CDDP effect by CBP501", "setting": "NCI-H647", "result": 1.5, "unit": "fold"},
      {"measurement": "Folds increase of CDDP effect by CBP501", "setting": "A549", "result": 2, "unit": "fold"},
      {"measurement": "Definition of CBP501 sensitivity", "setting": "NCI-H727", "result": "Insensitive (those that shifted the curve less than two fold were classified as CBP501 insensitive)"},
      {"measurement": "Folds increase of CDDP effect by CBP501", "setting": "NCI-H727; [6]", "result": 1, "unit": "fold"},
      {"measurement": "Uptake of CDDP into cancer cells", "setting": "cancer cells [1]", "result": "increased uptake of CDDP into cancer cells"},
      {"measurement": "Phosphorylation of CDC25C at Ser216", "setting": "cancer cells [2]", "result": "attenuates phosphorylation of CDC25C at Ser216"},
      {"measurement": "Accumulation of cancer cells at G2/M", "setting": "cancer cells [2]; lengthy combined exposure with CDDP or bleomycin (BLM)", "result": "reduces the accumulation of cancer cells at G2/M"},
      {"measurement": "Interaction with calmodulin", "setting": "calmodulin", "result": "direct interaction"},
      {"measurement": "Inhibition of kinases that phosphorylate CDC25C at Ser216", "setting": "[3]", "result": "inhibits multiple kinases that phosphorylate CDC25C at Ser216"},
      {"measurement": "Primary endpoint for efficacy", "setting": "[4]; MPM", "result": "primary endpoint for efficacy was achieved"},
      {"measurement": "Clinical activity", "setting": "[4]; combination of CDDP plus CBP501, patients with platinum-resistant ovarian carcinoma and MPM", "result": "showed evidence of clinical activity"},
      {"measurement": "Effect of CBP501 on CDDP-induced changes in cell cycle distribution (subG1, G2-M)", "setting": "[5]; H1437 Nrf2 knock-down", "result": "increase the effects of CDDP on changes in the cell cycle distribution of subG1 and G2-M; also recorded: increases CBP501 sensitivity"},
      {"measurement": "Effect of CBP501 on CDDP-induced changes in cell cycle distribution (subG1, G2-M)", "setting": "[5]; H1437 control shRNA", "result": "no difference in CDDP activity with or without CBP501"}
    ]}
  ]
}
